From US20150025131A1 (priority 2013, published 2015) come the findings set out here.

Each structure is given as a SMILES string. Values after ≈ are worked out from the molar mass of the structure shown. Where two headings read alike, the source gives them in different places.

In test [1] the test system is ROS production from human peripheral whole blood phagocytes. Description: Luminol enhanced chemiluminescence oxidative burst, whole blood. Type of test: cell-based. As to the method: (§1) Intracellular effect was determined using human peripheral whole blood phagocytes and isolated neutrophils and from mice peritoneum macrophages, where luminol-enhanced chemillumenescence assay was applied. The effect on myeloperoxidase independent ROS production was determined using lucigenin on murine macrophages RAW.267 cells.
(§2) Table 2. […] 267 cells (murine macrophages). DPI is used as standard drug. Reading presents mean±SD of three determinations.
(§3) Luminol enhanced chemiluminescence technique was applied to study the effect of compound on ROS from phagocytes, Using whole blood, neutrophil and macrophages Briefly, 25 μL diluted whole blood (1:50 dilution in sterile HBSS^++) or 25 μL of PMNs (1×10^6), or 25 μL of isolated macrophages (1×10^6) were incubated with 25 μL of compound in triplicates and using three different concentrations (1, 10 and 100 μg/mL) using white 96 wells plates. Wells received HBSS^++ and cells only without compound served as positive control. 25 μL of serum opsonized zymosan-A (SOZ), followed by 25 μL luminol (7×10^−5 M), was added to each well to maintain a volume of 100 μL/well. Plates were then incubated at 37° C. for 30 minutes in the thermostated chamber of the luminometer. Results were monitored as relative light unit (RLU) reading, with peak and total integral values set with repeated scans at 60 seconds intervals, and 1 second points measuring time.

Test [2] deals with PHA activated T cells isolated from human peripheral blood. The test can be described thus: Thymidine incorporation T cell proliferation assay (PHA activated). Type of test: cell-based. Particulars: Homo sapiens, T-cell, 72 h, read-out: Human T cell proliferation (IC50 μg/mL). The protocol:
Heparinized blood was obtained by vein puncture aseptically from healthy volunteers (25-38 years age). Blood (10 mL) was mixed with incomplete RPMI, layered on 5 mL of Lymphocyte separation medium and centrifuged at 400 g for 20 min at room temperature. Buffy layer was collected and mixed with incomplete RPMI and centrifuged at 4° C. for 10 min at 300 g. Cells were obtained after the RBCs (if any) lysis using hypotonic solution, and washed at 4° C. for 10 min at 300 g. The cells were then suspended in complete RPMI containing 5% FBS and their concentration was adjusted to 2×10^6 cells/mL for T-cell proliferation assay.
Cell proliferation assay was conducted through standard thymidine incorporation technique. Briefly, isolated T-cells from peripheral blood of healthy individuals were plated at a concentration of 2×10^6 cells/mL in a round bottom 96-well tissue culture plates. Cells were stimulated with 7.5 μg/mL of PHA. […] The plate was then incubated for 72 hours at 37° C. in 5% CO2 incubator. After 72 hours, cultures were pulsed with 0.5 μCi/well tritiated thymidine (Amersham Pharmacia Biotech), and further incubated for 18 h. Cells were harvested onto a glass fiber filters using cell harvester (Innotech, Dottikon, Switzerland). The level of the thymidine incorporated into the cells was measured by a liquid scintillation counter (LS 6500, Beckman Coulter, Fullerton, Calif., USA). Results were expressed as mean count per minute (CPM). The inhibitory activity of compounds on T-lymphocyte proliferation was calculated using the following formula: […]
For orientation: Uptake of a labelled nucleoside into DNA is a usual measure of proliferation.

Another test deals with IL-2 production. Description: IL-2 cytokine production. Type of test: cell-based. Particulars: read-out: IL-2 inhibition (IC50 μg/mL).
The test system of test [3] is knee joints of arthritic rats. The test can be described thus: Adjuvant induced arthritis model, histopathology of knee joints (H & E). Type of test: in vivo, Sprague Dawley rats. Particulars: H & E staining. As to the method: All studies were carried out using Female Sprague Dawley (SD) rats weighing 150-250 gms. Animals were kept at 21±2° C. and on a 12-h light/dark cycle, received standardized pelleted diet and tap water. Experiments were performed under the ethical guidelines of the International Association for the study of pain in conscious animals. Each group contains 12 animals with randomly distributed weights into each treatment group.
Arthritis was induced by injecting freshly prepared 100 μL of 1 mg suspension of lyophilized Mycobacterium tuberculosis H37Ra (MT H37Ra; DIFCO Laboratories, Detroit, Mich., USA), subcutaneously at the rat tail base using sterile hypodermic needle. Inoculation was carried out under anesthesia with a combination of 20 mg/kg ketamine and 5 mg/kg xylazine, injected intraperitoneally. Compound and the reference drug were administered daily, intraperitoneally using sterile syringes. The positive control received vehicle (5% DMSO+PBS) or saline only; treatment groups received test compounds (25 mg/kg), whereas reference group received indomethacin (5 mg/kg). The doses of the test compounds were selected after preliminary dose finding studies. The treatment was started on the same day after vaccination.
The animals were sacrificed at the end of the experiment and samples were taken from the knee joints. Sample fixation were done using 10% formalin following decalcification. The samples were then processed, embedded, cut, mounted and stained with hematoxylin and eosin (H & E) dye for microscopic evaluation.

For test [4], the system named is ROS production from mice peritoneal macrophages. Description: Luminol enhanced chemiluminescence oxidative burst, mice peritoneal macrophages. Type of test: cell-based. Conditions: Mus musculus, Peritoneal macrophage, serum opsonized zymosan, read-out: Myeloperoxidase dependent Oxidative Burst (IC50 μg/mL) Macrophages. The protocol:
as §1, §2
NMRI mice of 25 to 30 gm weight were injected aseptically with 1 mL of heat inactivated fetal bovine serum (FBS) in the peritoneum cavity, using sterile 1 mL syringe and mice were kept for further 72 h. […] Cells were counted and concentration was adjusted to 1×10^6/mL for chemiluminescence assay.
as §3, with “Wells received HBSS^++ and cells only without compound served as positive control. 25 μL of serum opsonized zymosan-A (SOZ), followed by 25 μL luminol (7×10^−5 M), was added to each well to maintain a volume of 100 μL/well. Plates were then incubated at 37° C. for 30 minutes in the thermostated chamber of the luminometer.” left out

The subject of a further test is IL-1β production. The test can be described thus: IL-1β production from PMA differentiated, LPS activated THP-1 cells (ELISA). Type of test: cell-based. Conditions: Homo sapiens, 18 h, read-out: inhibition of IL-1β production (IC50). As to the method:
THP-1 (human monocytic leukemia) cells were maintained in RPMI-1640 supplemented with 10% FBS, 2 mmol/L glutamine, 5.5 mmol/L glucose, 50 μmol/L mercaptoethanol, 1 mmol/L sodium pyruvate, and 10 mmol/L HEPES and incubated at 37° C. in 5% CO2. Cells were grown in […] culture flask until they attained 70% confluency. Cells were then plated in 24-well tissue culture plates at a concentration of 2.5×10^5 cells/mL. Cells were differentiated into macrophages using PMA at a final concentration of 20 ng/mL and further incubated at 37° C. in 5% CO2 environment for 24 h. […] After addition of the compound cells were then incubated for 4 h for TNF-α production and 18 h for IL-1β production at 37° C. in 5% CO2. The supernatants were harvested and analyzed for the level of TNF-α and IL-1β, by human TNF-α and IL-1β Duo set ELISA kits, and according to the manufacturer's instructions.
In general terms: An ELISA detects its analyte on a solid surface through an enzyme-linked reagent.

Take `COc1c(O)cc2oc(-c3ccc(O)c(O)c3)c(O)c(=O)c2c1O` [Patuletin, 3,5,7,3′,4′-pentahydroxy-6-methoxy flavones]: the IC50 is 3.5 ± 0.5 µg/mL in test [1] (luminol enhanced, serum opsonized zymosan, read-out: Myeloperoxidase dependent Oxidative Burst (IC50 μg/mL) Whole blood); 3.5 µg/mL in test [1] (read-out: suppression of ROS production from whole blood (IC50), unit inferred); 1.2 µg/mL (≈ 3.61 µM) in test [2]; 14.8 µg/mL (≈ 44.5 µM) in the test on IL-2 production; 1.9 µg/mL in test [4]; > 50 mg/L with IL-1β production. Further, the “histopathology of knee joints (in words) versus arthritic control rats” value in test [3] is “less infiltration of lymphocytes and minimal bone destruction”. For the same compound, the “histopathology score of knee joints” value in test [3] (normal control score 0, arthritic control score 4) is listed as 2.
